Consider 14 compounds from US5998420A, “Method for treating Mycobacterium tuberculosis” (priority 1996, dated 1999).

The test system of series [1] is Mycobacterium tuberculosis strain RC1. In words: MIC by agar dilution, M. tuberculosis strain RC1. The settings on record: for MIC: Mycobacterium tuberculosis, RC1; for effect of LIV addition on toxicity, strain RC1: strain RC1, LIV added. The format is cell-based. In general terms: In agar dilution the substance is mixed into plates at graded concentrations.
Series [2] deals with E. coli ketol-acid reductoisomerase. The settings on record: cited from earlier work.
In series [3] the test system is yeast isopropylmalate isomerase. The settings on record: cited from earlier work; for inhibition of yeast isopropylmalate isomerase, 19 vs 21: fully ionized, nitronate forms.
Series [4] deals with yeast. The settings on record: minimal media; cited from earlier work.
For series [5] the following is noted: cited from earlier work; for decomposition (retro-aldol): in the presence of divalent metals, unpublished observation.
For series [6], the system named is plants. The settings on record: leucine alone; cited from earlier work.
For series [7], the system named is Mycobacterium tuberculosis. The settings on record: Heifets L. B. (1994); cited from earlier work.
The subject of series [8] is Mycobacterium tuberculosis. Particulars: cited from earlier work; for change in final colony forming units vs starting: Klemens et al., 1994.
For series [9], the system named is ketol-acid reductoisomerase from carrot (plant). The settings on record: cited from earlier work.
The test system of series [10] is ketol-acid reductoisomerase from Klebsiella pneumoniae. The settings on record: cited from earlier work.
In series [11] the test system is ketol-acid reductoisomerase. The settings on record: cited from earlier work.
Series [12] concerns E. coli. The settings on record: minimal media; cited from earlier work.
Series [13] relates to K. pneumoniae. Particulars: cited from earlier work.
Series [14] has as its system carrot cells. The settings on record: branched chain amino acids; cited from earlier work.
Series [15] relates to Mycobacterium tuberculosis strain ATCC35801. Kind of series: MIC by agar dilution, M. tuberculosis strain ATCC35801. The format is cell-based. The settings on record: for MIC: Mycobacterium tuberculosis, ATCC35801; for effect of LIV addition on toxicity, strain ATCC35801: strain ATCC35801, LIV added.
The test system of series [16] is E. coli ketol-acid reductoisomerase. Particulars: presence of Mg2+ and NADPH; read-out: overall dissociation constant; cited from earlier work.
Series [17] concerns acetolactate synthase from E. coli. Particulars: 1 mM; cited from earlier work.
Series [18] has as its system dihydroxy acid dehydratase from E. coli. The settings on record: 1 mM; cited from earlier work.
The test system of series [19] is Mycobacterium tuberculosis strain ATCC35801. Kind of series: Tuberculosis mouse model study, colony forming units in lungs and spleens. The class given is in vivo, mice.
The format of series [20] is in vivo, CD-1 female mice. Particulars: 500 mg/kg body weight subcutaneous each day for 30 days. As to the method: To determine if high doses of sulfometuron methyl would be toxic to mice, a 20 mg/ml solution of this compound was prepared in phosphate buffered saline and 0.5 ml of this was injected subcutaneously into 4 day-old CD-1 female mice each day for 30 days. This dose corresponded to 500 mg sulfometuron methyl/kg body weight of the mouse. After the 30-day course of treatment the mice were sacrificed and the internal organs were examined by a veterinarian trained in laboratory animal care. The organs were compared to a control group that received injections of phosphate buffered saline.

Setting [21] is: leucine, isoleucine, and valine added (+LIV), read-out: MIC +LIV, strain RC1.
Where [22] appears, read: no branched chain amino acids (-LIV), read-out: MIC -LIV, strain RC1.
The mark [23] stands for this setting: leucine, isoleucine, and valine added (+LIV).
Where [24] appears, read: no branched chain amino acids (-LIV).

pKd: −log10 of the molar value. ≈ marks a conversion by molar mass, not a printed value. Like-named read-outs stand apart in the source and are kept apart here.

Take `COc1nc(C)nc(NC(=O)NS(=O)(=O)c2ccccc2Cl)n1` [Chlorsulfuron]: the MIC in series [1] (setting [21]) was more than 35 µg/mL; in series [1] (setting [22]) it was 4.4 µg/mL (≈ 12.3 µM). The “effect of LIV addition on toxicity, strain RC1” value (shortened to “effect … strain RC1”) in series [1] is given as “completely reversed the effects”.
Take `O=C(O)C(=O)N(O)Cc1ccccc1` [Compound 13]: the “association rate for the inhibitor, benzyl (13) vs hydrogen (9) on nitrogen” value in series [2] (relative to 9) is given as “increased the association rate for the inhibitor modestly”.
Consider `CCCCCCCCCCCCN(O)C(=O)C(=O)O` [Compound 14], for which the “potency relative to 13” value in series [2] (12-carbon chain on nitrogen, Aulabaugh & Schloss, unpublished) is listed as “comparable in potency to 13”.
Consider `CC(C)C(C(O)C(=O)O)[N+](=O)[O-]` (centres unmarked) [Compound 19], for which, in [3], the “inhibition of yeast isopropylmalate isomerase” value is recorded as “potent inhibitors” and the “inhibition of yeast isopropylmalate isomerase, 19 vs 21” value is recorded as “comparable”. Also, in series [4], the growth of yeast entry is listed as “no affect”. Also, the “decomposition (retro-aldol)” value in series [5] is “rapid rate”.
Take `CC(C)C(O)(C[N+](=O)[O-])C(=O)O` (centres unmarked) [Compound 20]: the “inhibition of yeast isopropylmalate isomerase” value in series [3] is on record as “potent inhibitors”. For the same compound, the growth of yeast entry in [4] was “no affect”. The “decomposition (retro-aldol)” value in series [5] is “rapid rate”.
For `O=C(O)C1(O)CCCC1[N+](=O)[O-]` (centres unmarked) [Compound 21], the “inhibition of yeast isopropylmalate isomerase, 19 vs 21” value in series [3] is given as “comparable”. In addition, the “inhibition of isopropylmalate isomerase, 21 vs 19” value in [3] (physiological conditions (pH 7)) is listed as “much more potent inhibitor than 19”. Besides, in [6], the “reversal of herbicidal activity” value is “reversed by leucine alone”. The “stability of the molecule” value in [5] (cyclopentane ring of 21) is listed as “insures stability of the molecule”.
For the compound `CC[C@@H](CO)NCCN[C@@H](CC)CO` [Ethambutol], the “MIC of first-line anti-tuberculosis drugs” value in [7] is 2 µg/mL. Also, the “change in final colony forming units vs starting” value (shortened to “change”) in series [8] is reported as “did not cause a decrease”.
Take `CP(C)(=O)C(O)C(=O)O` (centres unmarked) [Hoe 704, 2-dimethylphosphinoyl-2-hydroxy acetic acid]: the MIC in series [1] (setting [22]) was more than 37 µg/mL. In addition, in [2] (Hoe 704), the “inhibition of E. coli ketol-acid reductoisomerase” value was “potent and selective inhibitor”. Besides, the “inhibition of carrot ketol-acid reductoisomerase” value in series [9] is “potent and selective inhibitor”. Moreover, the “inhibition of Klebsiella pneumoniae ketol-acid reductoisomerase” value in series [10] was “potent and selective inhibitor”. Moreover, the “inhibition of ketol-acid reductoisomerase” value in [11] was “potent inhibitors”. The “growth inhibition of E. coli” value in [12] was “does not inhibit the growth”. For the same compound, the “reversal of growth inhibitory effect on K. pneumoniae” value in series [13] (branched chain amino acids and pantoate) is “requires both branched chain amino acids and pantoate”. Further, the “growth of K. pneumoniae” value in series [13] is recorded as “does inhibit the growth”. In series [14], the “reversal of effect on carrot cells in culture” value is given as “can be reversed by branched chain amino acids alone”.
For the compound `CC(C)N(O)C(=O)C(=O)O` [IpOHA, N-Isopropyloxayl hydroxamate], the MIC in series [1] (setting [21]) is 9.2 µg/mL (≈ 62.5 µM); in series [1] (setting [22]), 9.2 µg/mL (≈ 62.5 µM); in series [15] (setting [23]), more than 18 µg/mL; in series [15] (setting [24]), 18 µg/mL (≈ 122 µM). For the same compound, the “effect … strain RC1” value in [1] is “did not reverse the toxic effects”. Further, the “effect of LIV addition on toxicity, strain ATCC35801” value in series [15] is on record as “decreased the toxicity”. In series [16], the pKd was 10.70. Also, the “inhibition of ketol-acid reductoisomerase” value in [11] was “potent inhibitors”. Moreover, in series [17], the “effect on acetolactate synthase” value is listed as “no effect”. Also, the “effect on dihydroxy acid dehydratase” value in [18] is given as “no effect”.
Turning to `NNC(=O)c1ccncc1` [Isoniazid], the “MIC of first-line anti-tuberculosis drugs” value in series [7] was 0.2 µg/mL. The “Mycobacterium tuberculosis in spleens and lungs of mice” value in [8] (25 mg/kg (Lalande et al., 1993)) is “significantly reduced”. For the same compound, the “change” value in series [8] is given as “caused a decrease”.
Consider `NC(=O)c1cnccn1` [Pyrazinamide], for which, in [7], the “MIC of first-line anti-tuberculosis drugs” value was 16 µg/mL. Further, the “change” value in [8] is listed as “did not cause a decrease”.
Regarding `CO[C@H]1/C=C/O[C@@]2(C)Oc3c(C)c(O)c4c(O)c(c(/C=N/N5CCN(C)CC5)c(O)c4c3C2=O)NC(=O)/C(C)=C\C=C\[C@H](C)[C@H](O)[C@@H](C)[C@@H](O)[C@@H](C)[C@H](OC(C)=O)[C@@H]1C` [Rifampicin], the “MIC of first-line anti-tuberculosis drugs” value in series [7] is 0.5 µg/mL. Also, in [8], the “change” value was “caused a decrease”.
As for `COC(=O)c1ccccc1S(=O)(=O)NC(=O)Nc1nc(C)cc(C)n1` [SM, sulfometuron methyl], the MIC in series [1] (setting [21]) was 1.8 µg/mL (≈ 4.94 µM); in series [1] (setting [22]), 0.3 µg/mL (≈ 0.823 µM); in series [1] (read-out: minimum inhibitory concentration, medium supplemented with bovine serum albumin), 4.4 µg/mL (≈ 12.1 µM); in series [1] (read-out: minimum inhibitory concentration, medium supplemented with sodium oleate and bovine serum albumin) it was 2.2 µg/mL (≈ 6.04 µM); in series [15] (setting [23]), more than 3.6 µg/mL; in series [15] (setting [24]), 3.6 µg/mL (≈ 9.88 µM). In addition, the “effect … strain RC1” value in series [1] is “partially reduced the toxicity”. In addition, the “effect of isoleucine and valine addition on inhibition” value in series [1] (strain RC1, isoleucine and valine added) was “did not prevent inhibition”. For the same compound, in series [15], the “effect of LIV addition on toxicity, strain ATCC35801” value is “prevented the toxicity”. The “Mann-Whitney U test, 2-tailed P, lungs” value is listed as 0.31 in series [19] (20 mg/kg and 100 mg SM/kg); 0.002 in series [19] (20 mg/kg and 500 mg SM/kg); 0.009 in series [19] (100 mg/kg and 500 mg SM/kg); 0.39 in series [19] (PBS and 20 mg SM/kg); 0.65 in [19] (PBS and 100 mg SM/kg); 0.03 in series [19] (PBS and 500 mg SM/kg). In addition, the “mice with more than 200 colony forming units in the lungs” value in series [19] (500 mg sulfometuron methyl/kg, lungs, 31 days) was “none”. In addition, the “mice with more than 10^3 colony forming units/spleen, 500 mg/kg” value in [19] (500 mg sulfometuron methyl/kg, spleen) came out at 13%. The “growth of Mycobacterium tuberculosis in the lungs” value in series [19] (500 mg/kg body weight) is “significantly reduced growth”. In addition, the “growth of Mycobacterium tuberculosis in a mouse model system” value in series [19] (mouse, in vivo) was “inhibites growth”. Besides, in series [19] (overall difference between four groups, spleen, P < 0.05 considered significant), the “Kruskal-Wallis test, P, spleen” value is more than 0.05. Also, the “mice with more than 10^3 colony forming units in the lungs” value in series [19] (pooled groups PBS, 20 mg/kg and 100 mg/kg SM, lungs, 31 days) came out at 65%. In addition, the “mice with over 10^3 colony forming units/spleen, pooled groups” value in series [19] (pooled groups PBS, 20 mg/kg and 100 mg/kg SM, spleen) is recorded as 52%. Moreover, the “behavior of the mice and condition of the internal organs vs PBS” value in series [20] is listed as “No significant differences”.
Take `[H]/N=C(/N)N[C@H]1[C@H](O)[C@@H](O)[C@H](O[C@@H]2O[C@@H](C)[C@](O)(C=O)[C@H]2O[C@@H]2O[C@@H](CO)[C@H](O)[C@@H](O)[C@@H]2NC)[C@@H](N/C(N)=N\[H])[C@@H]1O` [Streptomycin]: the “MIC of first-line anti-tuberculosis drugs” value in [7] is 3 µg/mL.
